{"source": "patent US9950007B2", "about": "“Neuronal protection by cerium oxide nanoparticles” (UNIVERSITY OF CENTRAL FLORIDA RESEARCH FOUNDATION, INC., priority 2011, dated 2018)", "key": {"cortical neurons": {"system": "cortical neurons", "assay": "Scoring for neuronal cell death under nitrosative stressors", "assay_type": "cell-based, rat", "settings": "oligomerized Aβ 25-35 10 μM, 6 h; nanoceria 100 nM or NAC 50 μM, 3 h pretreatment", "protocol": "To assess the neuronal protection capabilities of CeO2 NPs, pure cortical neuronal cultures transfected with DsRed2-Mito were pretreated with CeO2 NPs (100 nM) and subjected to various treatments known to increase RNS. […] Cell death was evaluated by condensed nuclei accompanied by shrunken soma and mitochondrial fragmentation (FIG. 4A center panel).\nCultures were either transfected with DsRed2-Mito on day 5 using LipoFectamine2000® or immunostained for microtubule-associated protein 2 (MAP2) for visualization of processes. Experiments were performed after 11-14 days in vitro (DIV) with 3-NP, glutamate or NMDA. SNOC treated cultures were performed after 8 DIV. Neurons were pretreated with CeO2 NPs for various time points, 3 h, 12 h, 24 h or 72 h. For cultures treated with 3-NP (diluted in EBSS and pH adjusted to 7.4 with NaOH), 3-NP was diluted in individual culture's conditioned medium before exchange and cultures left for 8 h. Brief exposure to NMDA was carried as follows. […] Cells with fragmented mitochondria and condensed chromatin by Hoechst 33342 staining were scored as dead neurons. To evaluate mitochondrial fragmentation and cell death of a large number of neurons, manual scoring was carried out of neurons grown on glass coverslips using conventional fluorescence microscopy. […]"}, "[1]": {"system": "mitochondrial morphology in cortical neurons", "assay": "Mitochondrial fragmentation in neurons expressing DsRed2-Mito", "assay_type": "cell-based, rat", "settings": "Aβ 25-35 10 μM, 6 h; nanoceria 100 nM or NAC 50 μM, 3 h pretreatment", "description": "To test whether nanoceria would prevent the Aβ-induced mitochondrial fragmentation, the mitochondrial morphology by fluorescence microscopy in neurons expressing DsRed2-Mito, a red fluorescent protein targeted to the mitochondrial matrix was visualized.\nCultures were either transfected with DsRed2-Mito on day 5 using LipoFectamine2000® or immunostained for microtubule-associated protein 2 (MAP2) for visualization of processes. […] For Aβ (25-25) treated cultures, Aβ (25-35) or reverse (35-25) was left to oligomerize for 24 h at 25° C. before adding to cultures at 10 μM for 6 h. Cells were fixed in 3.7% formaldehyde and 5% sucrose in PBS for 20 min at 37° C. […] Cells with fragmented mitochondria and condensed chromatin by Hoechst 33342 staining were scored as dead neurons. To evaluate mitochondrial fragmentation and cell death of a large number of neurons, manual scoring was carried out of neurons grown on glass coverslips using conventional fluorescence microscopy.\nNeurons were grown on poly-Lysine coated glass cover slips as described before and transfected with DsRed2-Mito after 5 days in vitro (DIV) using Lipofectamine2000®. […] Quantification of mitochondrial fragmentation and neuronal cell death was performed as described (30). Fluorescence microscopy and image acquisition of mitochondrial morphology was performed as previously described (98)."}, "[2]": {"system": "DRP1 phosphorylation at S616", "assay": "Western blot of p-DRP1 S616 in neurons", "assay_type": "cell-based, rat", "settings": "preaggregated Aβ 25-35 10 μM, 6 h; nanoceria 100 nM or NAC 50 μM, 3 h pretreatment", "protocol": "To measure the levels of p-DRP1 S616, neurons were lysed in buffer containing 50 mM Tris-Cl, pH 7.0, 150 mM NaCl, 1 mM MgCl2, 1 mM NaF, 1 mM NaVO4, 1% NP40, 10% glycerol and complete Protease Inhibitor Cocktail Tablets (Roche Applied Science, US). Membranes were blocked with 5% nonfat milk in TBS (pH 8.0) with 0.05% Tween20 for 3 h at room temperature (RT) and were incubated with primary rabbit polyclonal antibodies for p-DRP1 S616 (Cell Signaling) (1:1000) overnight at 4° C. The membranes were then washed four times (5 min) with TBS (0.05% Tween) and incubated for 2 h at room temperature with anti-rabbit horseradish peroxidase-conjugated secondary antibodies (GE Healthcare)(1:15,000) in blocking solution. After 4 washes (5 min) of TBS (0.05% Tween), immunocomplexes were then detected using the Super-Signal West-Dura or Femto chemiluminescent substrates (Pierce, Thermoscientific, Rockford, Ill.). For re-probing the membranes were stripped with Restore Western Blot Stripping Buffer (Thermo-Scientific) according to the manufacturer and incubated with mouse monoclonal antibodies for DRP1 (BD Biosciences, clone 8/DLP1) (1:1000) antibody or with polyclonal rabbit antibodies for β-actin (Cell Signaling) (1:1000)."}, "[3]": {"assay": "Decay of ONOO^− followed at 302 nm by UV-visible spectroscopy", "method": "The decay of ONOO^− was followed in the absence and presence of CeO2 NPs (FIG. 2A and Supplementary FIG. 3: Effect of CeO2 NPs on the rate of decay of ONOO— in vitro varying pH. ONOO— (25 μM) was added at various pH's alone and in the presence of CeO2 NPs (100 μM), SiO2 NPs (100 μM), glutathione (GSH) (0.5 mM). (A) Peroxynitrite absorbance followed at 302 nm in 100 mM sodium phosphate buffer at pH 8.6. (N=4). GSH, known general scavenger and SiO2 NPs were added as positive and negative controls, respectively. Rate of ONOO—(black traces) decomposition was increased with CeO2 NPs (blue traces) in a similar manner of GSH (red traces). Rate of decomposition was not affected by presence of SiO2 NPs (green traces). B) 100 mM sodium phosphate buffer at pH 9.5. (N=3). Rate of ONOO—(black traces) decomposition was increased with CeO2 NPs (blue traces) in a similar manner of GSH (red traces). Absorbance was normalized by subtracting the final absorbance from initial absorbance and dividing by the amplitude. As stock solutions of ONOO— contain 0.3 M NaOH, control incubations were performed with equivalent amounts of NaOH. All in vitro experiments were performed using phosphate buffers containing 1 μM DPTA.). The in vitro assays were repeated using various phosphate buffers while varying the pH's. Since carbon dioxide is known to enhance the rate of ONOO^− decomposition (38), the change in absorbance at 302 nm was followed in potassium phosphate buffer (pH 8.0), which was degassed by argon. […] This change of absorbance in response to addition of CeO2 NPs in these studies also mimics the scavenging seen with glutathione, a known antioxidant that protects cells from free radicals and peroxides (39). […]\nUV-visible spectroscopy was used to measure decomposition of ONOO^− in the presence and absence of CeO2 NPs. […] Each sample was analyzed for a total of 600 seconds with a cycle time of 0.5 seconds at a wavelength of 302 nm using buffer containing 100 mM sodium phosphate buffer (pH 9.5-8.0) and 1 μM diethylenetriaminepentaacetic acid (DPTA) with or without CeO2 NPs. […]"}, "[4]": {"assay": "ONOO^−-mediated APF oxidation in vitro (fluorescence spectroscopy)", "settings": "ONOO^− 20 μM, fluorescence 515 nm (ex. 490 nm)", "method": "To obtain further insight into the ONOO^− scavenging abilities of CeO2 NPs, the yield of oxidized APF was followed by fluorescent spectroscopy using the oxidizable probe, 3′-(p-aminophenyl) fluorescein (APF) as an indicator (FIG. 2B). APF is an aromatic amino-fluorescein derivative that has little intrinsic fluorescence but undergoes oxidation by only hydroxyl radical, hypochlorate ion, and certain peroxidase intermediates such as ONOO^−, but is inert to NO., O2^⋅− and H2O2 (40).\nONOO^− (20 μM) was added to APF along with varying amounts CeO2 NPs. Glutathione (Fisher, Fair Lawn, N.J.) and uric acid (Avocado, Research Chemicals, Ltd.) known scavengers of ONOO^−, were used as positive controls. Fluorescence at 515 nm (ex. 490 nm) was measured using a Varian Cary Eclipse fluorescence spectrophotometer (Palo Alto, Calif.)."}, "[5]": {"settings": "cited from earlier work"}}, "note": "Entries after “also recorded” stand apart in the source; their conditions may differ.", "data": [{"compound": "CC(=O)N[C@@H](CS)C(=O)O", "note": "[NAC, N-acetyl-L-cysteine]", "values": [{"measurement": "cell viability / cell death after Aβ (25-35)", "setting": "cortical neurons", "value": "relieved; also recorded: reduced"}, {"measurement": "Aβ25-35-induced mitochondrial fragmentation (fluorescence micrographs)", "setting": "[1]", "value": "prevented"}, {"measurement": "Aβ 25-35-induced DRP1 S616 phosphorylation", "setting": "[2]", "value": "abolished"}]}, {"compound": "N[C@@H](CCC(=O)N[C@@H](CS)C(=O)NCC(=O)O)C(=O)O", "note": "[GSH, glutathione]", "values": [{"measurement": "rate of ONOO^− decomposition", "setting": "[3]; 100 mM sodium phosphate buffer pH 8.6, ONOO^− 25 μM, CeO2 NPs 100 μM, SiO2 NPs 100 μM, GSH 0.5 mM", "value": "increased"}, {"measurement": "rate of ONOO^− decomposition", "setting": "[3]; 100 mM sodium phosphate buffer pH 9.5, ONOO^− 25 μM, CeO2 NPs 100 μM, GSH 0.5 mM", "value": "increased"}, {"measurement": "oxidation of APF by ONOO^−", "setting": "[4]", "value": "prevented the oxidation of APF"}]}, {"compound": "O=c1[nH]c(=O)c2[nH]c(=O)[nH]c2[nH]1", "note": "[uric acid]", "values": [{"measurement": "rate of ONOO^− decomposition", "setting": "[3]; potassium phosphate buffer pH 8.0, degassed by argon, absorbance 302 nm", "value": "increased"}, {"measurement": "oxidation of APF by ONOO^−", "setting": "[4]", "value": "prevented the oxidation of APF"}]}, {"compound": "nitro-tyrosine", "values": [{"measurement": "pKa", "setting": "[5]", "value": 7.4}]}]}
